Reference: ChEMBL document CHEMBL4725259 (Bioorg Med Chem, 2020)
Active and inactive are the calls of the source. No cut-off for these calls is given here.

Key:
[1] = target: Vasopressin V1a receptor (Homo sapiens) (UniProt P37288); assay: Antagonist activity at AVPR1A in human U2OS cells at 20 uM by PathHunter beta-arrestin assay; assay type: cell-based; settings: filed as antagonist
[2] = target: T1, Prolactin-releasing peptide receptor (Homo sapiens) (UniProt P49683); assay: Antagonist activity at human PRLHR expressed in CHO-K1 cells at 20 uM by PathHunter beta-arrestin assay relative to control; assay type: cell-based; settings: filed as antagonist
T1 sequence (whole entry): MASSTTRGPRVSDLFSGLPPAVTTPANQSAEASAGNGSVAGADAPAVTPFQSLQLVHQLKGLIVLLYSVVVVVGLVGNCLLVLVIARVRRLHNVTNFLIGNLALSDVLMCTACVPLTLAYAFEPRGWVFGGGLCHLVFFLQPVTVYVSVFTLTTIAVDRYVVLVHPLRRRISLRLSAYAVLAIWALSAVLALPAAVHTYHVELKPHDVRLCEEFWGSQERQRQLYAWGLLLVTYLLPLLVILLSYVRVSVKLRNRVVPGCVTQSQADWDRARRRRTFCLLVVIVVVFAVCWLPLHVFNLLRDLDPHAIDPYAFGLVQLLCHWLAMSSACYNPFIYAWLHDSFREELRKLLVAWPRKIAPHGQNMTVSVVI

Oxytocin receptor = target: T2, Oxytocin receptor (Homo sapiens, UniProt P30559); assay: Antagonist activity at human OXTR expressed in CHO-K1 cells by PathHunter beta-arrestin assay; assay type: cell-based
T2 sequence (P30559 whole entry): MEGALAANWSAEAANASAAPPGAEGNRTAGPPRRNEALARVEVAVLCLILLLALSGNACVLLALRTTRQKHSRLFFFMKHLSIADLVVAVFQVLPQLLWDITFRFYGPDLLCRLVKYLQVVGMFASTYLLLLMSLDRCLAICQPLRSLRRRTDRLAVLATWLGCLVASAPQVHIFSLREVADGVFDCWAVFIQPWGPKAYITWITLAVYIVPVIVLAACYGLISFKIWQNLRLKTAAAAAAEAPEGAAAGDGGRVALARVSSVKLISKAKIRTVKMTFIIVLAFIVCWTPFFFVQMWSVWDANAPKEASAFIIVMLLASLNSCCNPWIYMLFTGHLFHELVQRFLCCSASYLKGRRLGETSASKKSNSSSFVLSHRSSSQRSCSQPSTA

[3] = target: D(2) dopamine receptor (Homo sapiens) (UniProt P14416); assay: Antagonist activity at human DRD2L expressed in CHO-K1 cells at 20 uM by PathHunter beta-arrestin assay relative to control; assay type: cell-based; settings: filed as antagonist
[4] = target: T1, Prolactin-releasing peptide receptor (Homo sapiens); assay: Agonist activity at human PRLHR expressed in CHO-K1 cells at 20 uM by PathHunter beta-arrestin assay relative to control; assay type: cell-based
[5] = target: T3, Vasopressin V1b receptor (Homo sapiens) (UniProt P47901); assay: Antagonist activity at human AVPR1B expressed in CHO-K1 cells at 20 uM by PathHunter beta-arrestin assay; assay type: cell-based; settings: filed as antagonist
T3 sequence (whole entry): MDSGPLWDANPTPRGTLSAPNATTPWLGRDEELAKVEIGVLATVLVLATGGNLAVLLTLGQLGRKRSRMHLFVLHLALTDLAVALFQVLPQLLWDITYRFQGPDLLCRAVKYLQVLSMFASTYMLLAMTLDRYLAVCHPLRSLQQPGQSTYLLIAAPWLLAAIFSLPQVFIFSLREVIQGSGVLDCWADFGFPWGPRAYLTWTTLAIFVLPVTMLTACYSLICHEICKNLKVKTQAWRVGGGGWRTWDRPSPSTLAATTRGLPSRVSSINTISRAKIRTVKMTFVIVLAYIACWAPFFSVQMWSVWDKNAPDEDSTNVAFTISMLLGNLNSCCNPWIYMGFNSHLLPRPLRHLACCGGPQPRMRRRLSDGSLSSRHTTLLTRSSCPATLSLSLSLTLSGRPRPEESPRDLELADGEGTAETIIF

Vasopressin V2 receptor = Vasopressin V2 receptor (Homo sapiens, UniProt P30518); assay: Antagonist activity at human AVPR2 by PathHunter beta-arrestin assay
[6] = target: T4, CX3C chemokine receptor 1 (Homo sapiens, UniProt P49238); assay: Antagonist activity at human CX3CR1 expressed in CHO-K1 cells by PathHunter beta-arrestin assay; assay type: cell-based
T4 sequence (P49238 whole entry): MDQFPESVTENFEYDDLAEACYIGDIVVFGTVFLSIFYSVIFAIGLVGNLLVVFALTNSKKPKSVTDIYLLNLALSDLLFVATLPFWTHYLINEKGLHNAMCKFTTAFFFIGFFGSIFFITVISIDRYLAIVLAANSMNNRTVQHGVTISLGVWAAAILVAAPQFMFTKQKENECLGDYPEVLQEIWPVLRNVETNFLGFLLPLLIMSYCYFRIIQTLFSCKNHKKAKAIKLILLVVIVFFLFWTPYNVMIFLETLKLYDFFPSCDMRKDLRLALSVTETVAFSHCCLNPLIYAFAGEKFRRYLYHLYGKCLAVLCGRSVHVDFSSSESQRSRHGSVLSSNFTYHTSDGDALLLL

[7] = target: T5, C-C chemokine receptor type 3 (Homo sapiens, UniProt P51677); assay: Antagonist activity at human CCR3 expressed in CHO-K1 cells by PathHunter beta-arrestin assay; assay type: cell-based
T5 sequence (P51677 whole entry): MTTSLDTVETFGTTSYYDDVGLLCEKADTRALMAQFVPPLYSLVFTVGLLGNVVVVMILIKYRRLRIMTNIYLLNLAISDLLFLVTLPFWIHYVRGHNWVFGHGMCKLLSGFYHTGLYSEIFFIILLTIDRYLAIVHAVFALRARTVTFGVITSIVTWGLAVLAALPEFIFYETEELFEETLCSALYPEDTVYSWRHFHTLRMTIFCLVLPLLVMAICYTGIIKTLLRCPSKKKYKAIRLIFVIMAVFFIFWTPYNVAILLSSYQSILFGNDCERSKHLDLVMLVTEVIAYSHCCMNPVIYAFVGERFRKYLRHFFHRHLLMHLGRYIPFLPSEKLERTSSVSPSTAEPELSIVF

[8] = target: C-C chemokine receptor type 8 (Homo sapiens, UniProt P51685); assay: Antagonist activity at human CCR8 expressed in CHO-K1 cells by PathHunter beta-arrestin assay; assay type: cell-based
[9] = target: C-X-C chemokine receptor type 4 (Homo sapiens, UniProt P61073); assay: Antagonist activity at human CXCR4 expressed in mouse C2C12 cells by PathHunter beta-arrestin assay; assay type: cell-based
Chain of C-X-C chemokine receptor type 4 (P61073 whole entry): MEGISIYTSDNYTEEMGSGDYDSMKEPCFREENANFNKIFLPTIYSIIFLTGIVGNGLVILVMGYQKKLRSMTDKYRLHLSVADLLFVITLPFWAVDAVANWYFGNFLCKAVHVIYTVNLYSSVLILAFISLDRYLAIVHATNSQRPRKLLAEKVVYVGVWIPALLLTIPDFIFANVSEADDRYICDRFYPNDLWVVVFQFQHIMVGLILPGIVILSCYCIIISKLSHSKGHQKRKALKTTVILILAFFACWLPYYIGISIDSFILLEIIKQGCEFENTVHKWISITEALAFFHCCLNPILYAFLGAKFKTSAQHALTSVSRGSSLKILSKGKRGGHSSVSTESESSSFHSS

Chain of Vasopressin V2 receptor (P30518 whole entry): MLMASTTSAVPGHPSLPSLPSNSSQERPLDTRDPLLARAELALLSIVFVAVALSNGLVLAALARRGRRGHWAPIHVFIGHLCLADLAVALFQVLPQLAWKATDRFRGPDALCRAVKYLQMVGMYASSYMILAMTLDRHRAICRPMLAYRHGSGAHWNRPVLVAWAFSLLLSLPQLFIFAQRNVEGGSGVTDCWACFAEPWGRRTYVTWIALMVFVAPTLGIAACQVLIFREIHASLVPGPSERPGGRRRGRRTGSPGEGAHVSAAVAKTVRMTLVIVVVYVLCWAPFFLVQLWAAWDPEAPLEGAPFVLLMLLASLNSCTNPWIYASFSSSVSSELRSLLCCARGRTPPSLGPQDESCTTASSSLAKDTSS
Chain of Vasopressin V1a receptor (Homo sapiens) (P37288 whole entry, looked up): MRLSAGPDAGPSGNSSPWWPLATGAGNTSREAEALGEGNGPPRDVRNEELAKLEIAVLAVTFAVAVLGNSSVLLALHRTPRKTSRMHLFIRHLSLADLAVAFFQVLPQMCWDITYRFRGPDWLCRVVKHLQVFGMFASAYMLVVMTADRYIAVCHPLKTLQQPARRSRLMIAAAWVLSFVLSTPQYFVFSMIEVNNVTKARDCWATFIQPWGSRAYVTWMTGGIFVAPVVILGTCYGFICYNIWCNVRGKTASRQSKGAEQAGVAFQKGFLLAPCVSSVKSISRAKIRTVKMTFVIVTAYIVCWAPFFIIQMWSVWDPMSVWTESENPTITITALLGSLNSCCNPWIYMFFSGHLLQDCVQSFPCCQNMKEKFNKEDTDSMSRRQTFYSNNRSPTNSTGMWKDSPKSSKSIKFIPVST
Chain of C-C chemokine receptor type 8 (P51685 whole entry): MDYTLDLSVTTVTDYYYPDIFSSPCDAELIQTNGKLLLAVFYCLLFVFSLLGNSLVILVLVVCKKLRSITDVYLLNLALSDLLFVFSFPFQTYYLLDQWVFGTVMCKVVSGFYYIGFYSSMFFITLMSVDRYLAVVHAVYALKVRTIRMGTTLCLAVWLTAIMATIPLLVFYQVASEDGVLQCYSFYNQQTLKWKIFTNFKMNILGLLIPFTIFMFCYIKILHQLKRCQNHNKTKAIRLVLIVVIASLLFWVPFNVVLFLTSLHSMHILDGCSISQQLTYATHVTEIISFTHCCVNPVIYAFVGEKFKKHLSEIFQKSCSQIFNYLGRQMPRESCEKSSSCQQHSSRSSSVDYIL
Chain of D(2) dopamine receptor (Homo sapiens) (P14416 whole entry): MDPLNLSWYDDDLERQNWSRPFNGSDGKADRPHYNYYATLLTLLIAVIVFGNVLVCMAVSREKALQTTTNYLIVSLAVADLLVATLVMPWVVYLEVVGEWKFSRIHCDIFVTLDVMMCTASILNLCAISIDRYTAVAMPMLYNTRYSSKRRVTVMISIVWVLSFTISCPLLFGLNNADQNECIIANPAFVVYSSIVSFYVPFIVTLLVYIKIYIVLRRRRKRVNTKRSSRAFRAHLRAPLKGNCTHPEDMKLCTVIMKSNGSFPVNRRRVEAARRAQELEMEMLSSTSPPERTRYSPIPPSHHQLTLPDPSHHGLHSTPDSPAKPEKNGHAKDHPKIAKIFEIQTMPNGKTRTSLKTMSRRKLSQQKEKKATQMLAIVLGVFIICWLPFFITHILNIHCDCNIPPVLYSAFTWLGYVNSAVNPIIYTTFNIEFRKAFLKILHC

| inhibition [1] | inhibition [2] | IC50 (Oxytocin receptor) | inhibition [3] | Activity [4] | inhibition [5] | IC50 (Vasopressin V2 receptor) | IC50 (Vasopressin V2 receptor; read-out: IC50) | IC50 [6] | IC50 [7] | IC50 [8] | IC50 [9] | Compound |
| --- | --- | --- | --- | --- | --- | --- | --- | --- | --- | --- | --- | --- |
| Active | 63% | 1.16 µM | 9% | inactive | Active | Dose-dependent effect | 0.459 µM |  |  |  |  | COC(=O)[C@@H]1[C@H]2C[C@@H]3N(CC[C@@]34C(=O)N(Cc3cccc(OC)c3)c3ccccc34)C[C@@H]2CC[C@@H]1OCc1cccc(OC)c1 |
|  | 19% |  |  | inactive |  |  |  | 8.47 µM | 8.3 µM | 7.29 µM | 7.94 µM | COC(=O)[C@@H]1[C@H]2C[C@@H](c3[nH]c4ccccc4c3CCn3cc(-c4cccc(Cl)c4)nn3)N(C#N)C[C@@H]2CC[C@@H]1O |
